This data set deals with CCRIS mutagenicity, Ames/micronucleus/aberration tests. Nature of the data set: CCRIS mutagenicity studies.
Where [1] appears, read: Test System: AMES SALMONELLA TYPHIMURIUM, Strain/Indicator: TA100, Metabolic Activation: NONE, Method: STANDARD PLATE.
The mark [2] stands for this setting: Test System: AMES SALMONELLA TYPHIMURIUM, Strain/Indicator: TA1535, Metabolic Activation: NONE, Method: STANDARD PLATE.
[3] abbreviates: Test System: AMES SALMONELLA TYPHIMURIUM, Strain/Indicator: TA100, Metabolic Activation: NONE, Method: PREINCUBATION
Where [4] appears, read: Test System: AMES SALMONELLA TYPHIMURIUM, Strain/Indicator: TA98, Metabolic Activation: NONE, Method: STANDARD PLATE.

Active and inactive are the calls of the source. How the calls were made is not given here.

Consider `C[C@@H]1O[C@@H]1C`, for which the mutagenic call is “active; positive” (Test System: AMES SALMONELLA TYPHIMURIUM, Strain/Indicator: TA100, Metabolic Activation: NONE, Method: FLASK VAPORIZATION); “active; positive” under setting [1]; “active; positive” (Test System: AMES SALMONELLA TYPHIMURIUM, Strain/Indicator: TA100, Metabolic Activation: RAT, LIVER, S-9, AROCLOR 1254, Method: FLASK VAPORIZATION); “active; positive” (Test System: AMES SALMONELLA TYPHIMURIUM, Strain/Indicator: TA1535, Metabolic Activation: NONE, Method: FLASK VAPORIZATION); “active; positive” under setting [2]; “active; positive” (Test System: AMES SALMONELLA TYPHIMURIUM, Strain/Indicator: TA1535, Metabolic Activation: RAT, LIVER, S-9, AROCLOR 1254, Method: FLASK VAPORIZATION).

In the case of `CCCN(COC(C)=O)N=O`, the mutagenic call (Test System: UDS RAT UROTHELIAL CELLS, Strain/Indicator: THY INCORP, Metabolic Activation: NONE) is “active; positive”.

Regarding `CN(C)c1nc(N(C)C)nc(N(C)C)n1`, the mutagenic call is “inactive; negative” under setting [3]; “inactive; negative” (Test System: AMES SALMONELLA TYPHIMURIUM, Strain/Indicator: TA100, Metabolic Activation: RAT, LIVER, S-9, AROCLOR 1254 (4 OR 10%), Method: PREINCUBATION); “inactive; negative” (Test System: AMES SALMONELLA TYPHIMURIUM, Strain/Indicator: TA100, Metabolic Activation: RAT, LIVER, S-9, AROCLOR 1254 (10%), Method: STANDARD PLATE); “active; positive” (Test System: AMES SALMONELLA TYPHIMURIUM, Strain/Indicator: TA100, Metabolic Activation: RAT, LIVER, S-9, AROCLOR 1254 (30%), Method: PREINCUBATION).

In the case of `Cc1ccc(N=NN(C)C)cc1`, the mutagenic call was “inactive; negative” (Test System: AMES SALMONELLA TYPHIMURIUM, Strain/Indicator: TA92, Metabolic Activation: MOUSE, LIVER, S-9, POLYCHLORINATED BIPHENYLS, Method: PREINCUBATION); “inactive; negative” (Test System: AMES SALMONELLA TYPHIMURIUM, Strain/Indicator: TA92, Metabolic Activation: MOUSE, LIVER, S-9, POLYCHLORINATED BIPHENYLS, Method: STANDARD PLATE); “inactive; negative” (Test System: AMES SALMONELLA TYPHIMURIUM, Strain/Indicator: TA92, Metabolic Activation: NONE, Method: STANDARD PLATE); “inactive; negative” (Test System: AMES SALMONELLA TYPHIMURIUM, Strain/Indicator: TA97, Metabolic Activation: MOUSE, LIVER, S-9, POLYCHLORINATED BIPHENYLS, Method: PREINCUBATION); “inactive; negative” (Test System: AMES SALMONELLA TYPHIMURIUM, Strain/Indicator: TA97, Metabolic Activation: MOUSE, LIVER, S-9, POLYCHLORINATED BIPHENYLS, Method: STANDARD PLATE); “active; positive” (Test System: AMES SALMONELLA TYPHIMURIUM, Strain/Indicator: TA97, Metabolic Activation: NONE, Method: STANDARD PLATE). Besides, the mutagenic call (Test System: AMES SALMONELLA TYPHIMURIUM, Strain/Indicator: TA98, Metabolic Activation: MOUSE, LIVER, S-9, POLYCHLORINATED BIPHENYLS, Method: PREINCUBATION) is “inactive; negative”; the mutagenic call (Test System: AMES SALMONELLA TYPHIMURIUM, Strain/Indicator: TA98, Metabolic Activation: MOUSE, LIVER, S-9, POLYCHLORINATED BIPHENYLS, Method: STANDARD PLATE) is “active; positive”; the mutagenic call under setting [4] is “active; positive”; the mutagenic call (Test System: AMES SALMONELLA TYPHIMURIUM, Strain/Indicator: TA100, Metabolic Activation: MOUSE, LIVER, S-9, POLYCHLORINATED BIPHENYLS, Method: PREINCUBATION) was “inactive; negative”; the mutagenic call (Test System: AMES SALMONELLA TYPHIMURIUM, Strain/Indicator: TA100, Metabolic Activation: MOUSE, LIVER, S-9, POLYCHLORINATED BIPHENYLS, Method: STANDARD PLATE) is “inactive; negative”; the mutagenic call under setting [1] was “inactive; negative”. Moreover, the mutagenic call is “inactive; negative” (Test System: AMES SALMONELLA TYPHIMURIUM, Strain/Indicator: TA1535, Metabolic Activation: MOUSE, LIVER, S-9, POLYCHLORINATED BIPHENYLS, Method: PREINCUBATION); “inactive; negative” (Test System: AMES SALMONELLA TYPHIMURIUM, Strain/Indicator: TA1535, Metabolic Activation: MOUSE, LIVER, S-9, POLYCHLORINATED BIPHENYLS, Method: STANDARD PLATE); “inactive; negative” under setting [2]; “active; positive” (Test System: AMES SALMONELLA TYPHIMURIUM, Strain/Indicator: TA1537, Metabolic Activation: MOUSE, LIVER, S-9, POLYCHLORINATED BIPHENYLS, Method: PREINCUBATION); “active; positive” (Test System: AMES SALMONELLA TYPHIMURIUM, Strain/Indicator: TA1537, Metabolic Activation: MOUSE, LIVER, S-9, POLYCHLORINATED BIPHENYLS, Method: STANDARD PLATE); “active; positive” (Test System: AMES SALMONELLA TYPHIMURIUM, Strain/Indicator: TA1537, Metabolic Activation: NONE, Method: STANDARD PLATE). The mutagenic call (Test System: AMES SALMONELLA TYPHIMURIUM, Strain/Indicator: TA1538, Metabolic Activation: MOUSE, LIVER, S-9, POLYCHLORINATED BIPHENYLS, Method: PREINCUBATION) was “active; positive”; the mutagenic call (Test System: AMES SALMONELLA TYPHIMURIUM, Strain/Indicator: TA1538, Metabolic Activation: MOUSE, LIVER, S-9, POLYCHLORINATED BIPHENYLS, Method: STANDARD PLATE) was “active; positive”; the mutagenic call (Test System: AMES SALMONELLA TYPHIMURIUM, Strain/Indicator: TA1538, Metabolic Activation: NONE, Method: STANDARD PLATE) was “active; positive”.

For `C=CC1(C)CO1` (stereo unspecified), the mutagenic call by setting is: (End Point: IN VIVO MICRONUCLEUS, Test System: BONE MARROW POLYCHROMATIC ERYTHROCYTES, Species: MOUSE, Strain/Sex: C57/BL/MALE, Route: INTRAPERITONEAL INJECTION) “active; positive”; under setting [4], “inactive; negative”; under setting [1], “inactive; negative”.

In the case of `O=S(=O)(O)c1ccccc1`, the mutagenic call is, setting by setting: (Test System: AMES SALMONELLA TYPHIMURIUM, Strain/Indicator: TA97, Metabolic Activation: HAMSTER, LIVER, S-9, AROCLOR 1254 (10 OR 30%), Method: PREINCUBATION) “inactive; negative”; (Test System: AMES SALMONELLA TYPHIMURIUM, Strain/Indicator: TA97, Metabolic Activation: NONE, Method: PREINCUBATION) “inactive; negative”; (Test System: AMES SALMONELLA TYPHIMURIUM, Strain/Indicator: TA97, Metabolic Activation: RAT, LIVER, S-9, AROCLOR 1254 (10 OR 30%), Method: PREINCUBATION) “inactive; negative”; (Test System: AMES SALMONELLA TYPHIMURIUM, Strain/Indicator: TA98, Metabolic Activation: HAMSTER, LIVER, S-9, AROCLOR 1254 (10 OR 30%), Method: PREINCUBATION) “inactive; negative”; (Test System: AMES SALMONELLA TYPHIMURIUM, Strain/Indicator: TA98, Metabolic Activation: NONE, Method: PREINCUBATION) “inactive; negative”; (Test System: AMES SALMONELLA TYPHIMURIUM, Strain/Indicator: TA98, Metabolic Activation: RAT, LIVER, S-9, AROCLOR 1254 (10 OR 30%), Method: PREINCUBATION) “inactive; negative”. Moreover, the mutagenic call by setting is: (Test System: AMES SALMONELLA TYPHIMURIUM, Strain/Indicator: TA100, Metabolic Activation: HAMSTER, LIVER, S-9, AROCLOR 1254 (10 OR 30%), Method: PREINCUBATION) “inactive; negative”; under setting [3], “inactive; negative”; (Test System: AMES SALMONELLA TYPHIMURIUM, Strain/Indicator: TA100, Metabolic Activation: RAT, LIVER, S-9, AROCLOR 1254 (10 OR 30%), Method: PREINCUBATION) “inactive; negative”; (Test System: AMES SALMONELLA TYPHIMURIUM, Strain/Indicator: TA1535, Metabolic Activation: HAMSTER, LIVER, S-9, AROCLOR 1254 (10 OR 30%), Method: PREINCUBATION) “inactive; negative”; (Test System: AMES SALMONELLA TYPHIMURIUM, Strain/Indicator: TA1535, Metabolic Activation: NONE, Method: PREINCUBATION) “inactive; negative”; (Test System: AMES SALMONELLA TYPHIMURIUM, Strain/Indicator: TA1535, Metabolic Activation: RAT, LIVER, S-9, AROCLOR 1254 (10 OR 30%), Method: PREINCUBATION) “inactive; negative”.

Take `COc1cc([N+](=O)[O-])c(O)c(C(C)(C)C)c1`: the mutagenic call under setting [4] is “inactive; negative”; the mutagenic call (Test System: AMES SALMONELLA TYPHIMURIUM, Strain/Indicator: TA98, Metabolic Activation: RAT, LIVER, S-9, AROCLOR 1254, Method: STANDARD PLATE) was “inactive; negative”; the mutagenic call under setting [1] is “inactive; negative”; the mutagenic call (Test System: AMES SALMONELLA TYPHIMURIUM, Strain/Indicator: TA100, Metabolic Activation: RAT, LIVER, S-9, AROCLOR 1254, Method: STANDARD PLATE) was “inactive; negative”.

The record behind these values is PubChem BioAssay AID1259407 (Chemical Carcinogenesis Research Information System (CCRIS), 2018).
